Here are results for seven molecules from PubChem BioAssay (NCI).

Some test systems named below: RXF 393 renal; HCC-2998 colon; OVCAR-5 ovarian; SF-295 CNS; PC-3 prostate; SK-MEL-2 melanoma; IGROV1 ovarian; MOLT-4 leukemia; UO-31 renal; NCI-H23 lung.
Common to all, as to experiment: inhibition of tumour cell growth, NCI panel, 48 h

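Compound exposure: 48 hours, 5 concentrations, 96-well plates. The concentration for 50% growth inhibition is given as GI50. TGI is the concentration that stops growth completely.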 A value given as a limit tells only on which side of the number the result lay.

On to `CNC(=O)c1ccc(N2C(=S)N(c3cnc(C#N)c(C(F)(F)F)c3)C(=O)C23CCC3)cc1F`, for which the GI50 was above 44.8 µM in the test with RXF 393 renal; above 100 µM with HCC-2998 colon; above 100 µM with OVCAR-5 ovarian; above 100 µM in the test with SF-295 CNS; above 100 µM in the test with PC-3 prostate; above 100 µM with SK-MEL-2 melanoma. For the same molecule, the GI50 with IGROV1 ovarian was above 100 µM; in the test on MOLT-4 leukemia, 61.9 µM; in the test with UO-31 renal, above 72.1 µM; in the test on NCI-H23 lung, above 100 µM. Further, the TGI in the test with RXF 393 renal, in the test on HCC-2998 colon, in the test with OVCAR-5 ovarian, with SF-295 CNS, with PC-3 prostate and with SK-MEL-2 melanoma was above 100 µM throughout. In addition, the TGI in the test with IGROV1 ovarian, in the test on MOLT-4 leukemia, with UO-31 renal and with NCI-H23 lung was above 100 µM throughout.

`Cc1onc(-c2ccccc2)c1C(=O)N/N=C/c1cc(Cl)cc(Cl)c1O`: the GI50 in the test with RXF 393 renal was 7.72 µM; with HCC-2998 colon it was 4.13 µM; in the test on OVCAR-5 ovarian, 8.65 µM; in the test on SF-295 CNS, 2.05 µM; in the test on PC-3 prostate, 3.93 µM; in the test with SK-MEL-2 melanoma it was 11.5 µM. Further, the GI50 in the test on IGROV1 ovarian was 2.92 µM; in the test on MOLT-4 leukemia, 3.53 µM; in the test on UO-31 renal, 1.83 µM; with NCI-H23 lung, 10.6 µM. Also, the TGI in the test with RXF 393 renal is above 100 µM; in the test on HCC-2998 colon, 18.2 µM; with OVCAR-5 ovarian it was above 100 µM; with SF-295 CNS it was 11.3 µM; with PC-3 prostate it was 32.6 µM; with SK-MEL-2 melanoma, 56 µM. The TGI with IGROV1 ovarian came to 21.7 µM; with MOLT-4 leukemia, 22.9 µM; in the test with UO-31 renal, 12.9 µM; in the test with NCI-H23 lung, 67.9 µM.

As to `O=C(CN(/C=C/C(=O)C(F)(F)F)c1ccc(Cl)cc1)c1ccc(Cl)cc1`, the GI50 in the test on RXF 393 renal was 10.2 µM; with HCC-2998 colon, 15.7 µM; with OVCAR-5 ovarian, 16.1 µM; with SF-295 CNS, 4.66 µM; with PC-3 prostate, 12.9 µM; with SK-MEL-2 melanoma it was 3.88 µM. In addition, the GI50 is 1.79 µM in the test with IGROV1 ovarian, 8.82 µM in the test on MOLT-4 leukemia, 12 µM in the test with UO-31 renal and 6.3 µM with NCI-H23 lung. The TGI in the test with RXF 393 renal was 35.9 µM; in the test with HCC-2998 colon it was 35 µM; with OVCAR-5 ovarian, 32.9 µM; with SF-295 CNS, 17.7 µM; in the test on PC-3 prostate, 26.5 µM; with SK-MEL-2 melanoma, 14.4 µM. For the same molecule, the TGI in the test with IGROV1 ovarian stood at 7.96 µM; in the test on MOLT-4 leukemia, 37.4 µM; in the test on UO-31 renal, 24.8 µM; with NCI-H23 lung, 20.9 µM.

In the case of `CC(=O)O[C@@H]1C2CCC3C(CC[C@@]4(C)C3CC[C@@H]4C(C)N(C)C)[C@@]2(C)CC[C@@H]1NC(=O)C=C(C)C` (some centres undefined), the GI50 is 1.46 µM in the test on RXF 393 renal; 1.73 µM in the test on HCC-2998 colon; 3.33 µM with OVCAR-5 ovarian; 1.85 µM in the test with SF-295 CNS; 2.79 µM in the test on PC-3 prostate; 2.89 µM in the test on SK-MEL-2 melanoma. For the same molecule, the GI50 in the test with IGROV1 ovarian is 4.76 µM; in the test on MOLT-4 leukemia it was 2.33 µM; in the test with UO-31 renal, 1.5 µM; in the test with NCI-H23 lung, 3.13 µM. For the same molecule, the TGI in the test with RXF 393 renal stood at 3.21 µM; with HCC-2998 colon it was 3.66 µM; with OVCAR-5 ovarian, 14.1 µM; in the test on SF-295 CNS it was 4.42 µM; with PC-3 prostate, 13.9 µM; in the test on SK-MEL-2 melanoma, 6.85 µM. The TGI was determined as 16 µM in the test on IGROV1 ovarian, 5.69 µM with MOLT-4 leukemia, 3.33 µM in the test with UO-31 renal and 14 µM in the test on NCI-H23 lung.

As to `Nc1nc(/C=C\c2ccc([N+](=O)[O-])s2)nc(N2CCN(c3ccccc3)CC2)n1`, the GI50 with RXF 393 renal was 18.6 µM; in the test on HCC-2998 colon, 22.2 µM; in the test with OVCAR-5 ovarian it was 40 µM; in the test with SF-295 CNS it was 20 µM; in the test on PC-3 prostate, 21.9 µM; in the test on SK-MEL-2 melanoma, 21.2 µM. The GI50 in the test with IGROV1 ovarian is 14.5 µM; in the test with MOLT-4 leukemia, 23.1 µM; in the test with UO-31 renal it was 18.7 µM. The TGI in the test on RXF 393 renal was found to be 37.2 µM; with HCC-2998 colon, 44.8 µM; in the test with OVCAR-5 ovarian, 98.3 µM; in the test with SF-295 CNS, 58.3 µM; in the test with PC-3 prostate, 63.7 µM; in the test on SK-MEL-2 melanoma, 48.5 µM. For the same molecule, the TGI in the test on IGROV1 ovarian is 34.7 µM; in the test with MOLT-4 leukemia, 75.3 µM; in the test with UO-31 renal, 43.7 µM.

Turning to `COc1cc(/C=C2\CC3C4CC=C5C[C@@H](OC(C)=O)CC[C@]5(C)C4CC[C@]3(C)C2=O)ccc1OCCN1CCCCC1` (some centres undefined), the GI50 is 2.95 µM in the test with RXF 393 renal; 2.7 µM in the test with HCC-2998 colon; 3.83 µM in the test with OVCAR-5 ovarian; 2.41 µM with SF-295 CNS; 3.51 µM in the test with PC-3 prostate; 10.1 µM with SK-MEL-2 melanoma. For the same molecule, the GI50 in the test with MOLT-4 leukemia is 1.16 µM; with UO-31 renal, 1.98 µM; with NCI-H23 lung, 10.4 µM. Further, the TGI came out at 14.6 µM in the test with RXF 393 renal; 6.59 µM in the test on HCC-2998 colon; 7.42 µM in the test on OVCAR-5 ovarian; 5.08 µM in the test on SF-295 CNS; 11.2 µM in the test on PC-3 prostate; 28.4 µM in the test with SK-MEL-2 melanoma. Moreover, the results for the TGI with MOLT-4 leukemia, in the test on UO-31 renal and with NCI-H23 lung were 3.23 µM, 4.99 µM and 22.2 µM, respectively.

As for `COc1ccc(C(=O)C(CN(C)C)CN(C)C)cc1`, the GI50 with RXF 393 renal is 1.55 µM; with HCC-2998 colon, 15.9 µM; in the test with OVCAR-5 ovarian, 12.6 µM; in the test on SF-295 CNS, 21.2 µM; in the test with PC-3 prostate, 13.2 µM; with SK-MEL-2 melanoma, 16.7 µM. Also, the GI50 in the test on IGROV1 ovarian is 15.4 µM; with UO-31 renal, 1.37 µM; in the test on NCI-H23 lung, 14.2 µM. Besides, the TGI is 3.8 µM with RXF 393 renal; 30 µM in the test with HCC-2998 colon; 30.8 µM in the test on OVCAR-5 ovarian; 52.2 µM in the test on SF-295 CNS; 29.9 µM in the test on PC-3 prostate; 36.8 µM in the test with SK-MEL-2 melanoma. Moreover, the TGI in the test on IGROV1 ovarian is 39.2 µM; in the test on UO-31 renal, 2.91 µM; in the test with NCI-H23 lung, 41 µM.
